# Marks after values point to notes of the source that are not given here.
# Experiments:
# [1] = target: T1, Recombinant Rho kinase (fused protein composed of bovine Rho kinase catalytic region and glutathione S-transferase) (Bos taurus, UniProt Q28021); test: Rho kinase inhibitory activity (phosphorylation of S6 231-239 substrate with γ32P-ATP); type: biochemical; details: concentration inhibiting substrate phosphorylation by 50%
# T1 construct: fused protein composed of bovine Rho kinase catalytic region and glutathione S-transferase; glutathione S-transferase (GST); made in house; host or cells: insect cells infected with baculovirus
# Method: This permits the substrate to be labeled with the radioisotope.
# Thereafter, the substrate was adsorbed to a filter paper. ATP was washed away with a phosphoric acid solution, and the amount of the phosphorylated substrate was then measured with a liquid scintillation counter.
# [2] = test system: Mouse-derived CCR2 overexpressing human-derived histiocyte lymphoma (U937/CCR2); test: Leukocyte migration inhibitory activity (MCP-1 induced migration, CHEMOTAXICELL); type: cell-based; details: U-937, test compound concentration 10 μg/ml, MCP-1 ligand, migration 1 hr
# Method: Mouse-derived CCR2 overexpressing human-derived histiocyte lymphoma (U937/CCR2), was suspended in a 0.1% BSA-containing RPMI 1640 medium, to which a test compound had been added (5×10^6/ml), and the suspension was incubated for 20 min. A chemical solution (500 μl) (0.1% BSA-containing RPMI 1640 medium DMSO 1%), to which an MCP-1 ligand (1 μM) and the test compound had been added, was added to a 24-well plate. CHEMOTAXICELL was put thereon, and 200 μl of the cell suspension was added to the top layer, followed by migration under a 5% CO2 atmosphere at 37° C. for one hr. The number of cells, which had migrated to the lower chamber, was counted with a particle count analyzer (CDA-500, SYSMEX CORPORATION), and the percentage migration inhibition was calculated by the following equation: Migration inhibition (%)=(1−number of migrated cells in the presence of test compound/number of migrated cells in the absence of test compound)×100
# [3] = test system: anti-GBM nephritis model using WKY rats; test: Proteinuria amelioration activity for anti-GBM nephritis model using WKY rats; type: in vivo, rat; details: mean ± standard error, 6 rats; for Number of cells (ED-1 positive cells per glomerulus): hydrochloride 30 mg/kg oral twice a day, kidney four days after antibody
# Method: An anti-GBM antibody produced by immunizing domestic rabbits with a rat-derived GBM fraction was caudointravenously administered to WKY male rats of 8 weeks old to induce nephritis. For 3 days from the time 24 hr after the administration of the antibody, a solution of each of the hydrochlorides prepared in Examples 45 and 46 in purified water was orally administered at a dose of 30 mg/kg twice a day. Three days after the administration of the antibody, twenty-four-hours urine was collected to determine the protein level of urine.
# Four days after the administration of the antibody, the rats were sacrificed by exsanguination, and the kidney was then harvested and was fixed in 4% paraformaldehyde to prepare a specimen for staining. Next, the specimen thus obtained was immunostained using a mouse-anti-rat macrophage monoclonal antibody (ED-1). The number of ED-1 positive cells per glomerulus was counted.
# Likewise, an anti-GBM antibody was caudointravenously administered to WKY male rats of 7 weeks old to induce nephritis. For 4 weeks from the time 24 hr after the administration of the antibody, a solution of the hydrochloride prepared in each of Examples 45 and 46 in purified water was orally administered at a dose of 30 mg/kg twice a day. Four weeks after the administration of the antibody, twenty-four-hours urine was collected to determine the protein level of urine.
# Rho kinase = target: T2, Rho kinase (Bos taurus, UniProt Q28021); test: Ex vivo experiment: Rho kinase inhibition by serum of orally dosed SD rats; type: in vivo, rat; details: hydrochloride 30 mg/kg oral, SD rats (N=4), serum diluted 8 times
# T2 construct: fused protein composed of bovine Rho kinase catalytic region and glutathione S-transferase; glutathione S-transferase (GST); made in house; host or cells: insect cells infected with baculovirus
# Method: Water or a solution of a hydrochloride salt of a test compound (30 mg/kg) in physiological saline was orally administered to SD rats (N=4). […] The serum was diluted 8 times with physiological saline and was added to Rho kinase, substrate, and labeled ATP according to the method described in Pharmacological Test Example 1, and the amount of the phosphorylated substrate was determined. Rho kinase inhibition was calculated according to the following equation: Inhibition (%)=(1−amount of substrate in the case of test compound administration/amount of substrate in the case of water administration)×100
# [4] = test system: Spontaneously hypertensive male rats (SHR); test: Blood pressure depression activity in spontaneously hypertensive rats; type: in vivo, rat; details: hydrochloride 30 mg/kg oral; systolic pressure 3 to 4 hr after administration; ± standard error, four SHRs
# Method: Spontaneously hypertensive male rats (SHR, Charles River Japan, Inc.) of 15 weeks old were provided. A solution of a hydrochloride of a compound of Example 45 or 46 (30 mg/kg) in purified water was orally administered to the rats. The systolic pressure of SHR was measured immediately before the administration of the test compound and 3 to 4 hr after the administration of the test compound. The percentage blood pressure depression was calculated by the following equation: Blood pressure depression (%)={(blood pressure before administration of test compound−blood pressure after administration of test compound)/blood pressure before administration of test compound}×100
# The blood pressure depression was expressed in terms of the percentage blood pressure depression and the standard error for four SHRs.
# [5] = hydrochloride 30 mg/kg oral twice a day for 4 weeks, 24-hr urine four weeks after antibody
# [6] = hydrochloride 30 mg/kg oral twice a day for 3 days, 24-hr urine three days after antibody
# [7] = blood collection 4 hr after administration
# T2 sequence (Q28021 6-553 limits assumed): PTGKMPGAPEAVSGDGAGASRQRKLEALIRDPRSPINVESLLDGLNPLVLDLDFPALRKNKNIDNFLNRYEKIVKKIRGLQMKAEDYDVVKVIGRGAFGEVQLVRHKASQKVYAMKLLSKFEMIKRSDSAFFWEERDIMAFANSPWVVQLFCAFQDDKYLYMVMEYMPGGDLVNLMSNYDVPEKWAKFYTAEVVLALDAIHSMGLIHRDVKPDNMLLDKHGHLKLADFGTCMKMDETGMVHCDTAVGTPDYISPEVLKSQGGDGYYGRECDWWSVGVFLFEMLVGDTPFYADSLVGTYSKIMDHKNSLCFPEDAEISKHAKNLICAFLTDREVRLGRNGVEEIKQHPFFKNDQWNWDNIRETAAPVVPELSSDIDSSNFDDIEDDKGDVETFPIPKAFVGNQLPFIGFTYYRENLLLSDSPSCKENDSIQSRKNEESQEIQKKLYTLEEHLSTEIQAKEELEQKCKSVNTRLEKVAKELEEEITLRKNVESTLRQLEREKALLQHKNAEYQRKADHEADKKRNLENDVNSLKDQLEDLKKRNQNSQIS
# T1 sequence (Q28021 92-354 limits assumed): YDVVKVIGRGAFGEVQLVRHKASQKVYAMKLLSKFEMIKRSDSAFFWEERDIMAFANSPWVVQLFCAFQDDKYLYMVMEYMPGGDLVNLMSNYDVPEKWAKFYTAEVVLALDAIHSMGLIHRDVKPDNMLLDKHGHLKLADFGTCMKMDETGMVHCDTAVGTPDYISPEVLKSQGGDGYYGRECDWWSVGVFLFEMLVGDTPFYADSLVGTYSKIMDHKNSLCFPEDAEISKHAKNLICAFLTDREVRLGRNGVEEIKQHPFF
SMILES,IC50 [1] [nM],inhibition at 10 µg/mL [2] [%],"Protein level of urine [3, 5]","Protein level of urine [3, 6]",Number of cells (ED-1 positive cells per glomerulus) [3],Inhibition (%) (Rho kinase; [7]),Blood pressure depression (%) [4] [%],Inhibition (%) (Rho kinase; blood collected 3 hr after administration)
"Nc1cccc(CN2CC[C@H](Nc3cccc4cnccc34)C2)c1 [Example 45, (3S)-N5-[1-(3-Aminobenzyl)tetrahydro-1H-3-pyrrolyl]-5-isoquinolineamine]",310,74,"779.4 ± 133.9 mg/kg, body weight","91.2 ± 21.5 mg/kg, body weight",2.20 ± 0.65,17* %,10.2 ± 3.1,–
"Nc1cccc(CN2CCC(Nc3cccc4cnccc34)C2)c1 (stereo not shown) [Example 17, N5-[1-(3-Aminobenzyl)tetrahydro-1H-3-pyrrolyl]-5-isoquinolylamine]",280,94,–,–,–,–,–,57
"Nc1cccc(CN2CC[C@@H](Nc3cccc4cnccc34)C2)c1 [Example 46, (3R)-N5-[1-(3-Aminobenzyl)tetrahydro-1H-3-pyrrolyl]-5-isoquinolineamine]",23,104,"327.6 ± 55.2 mg/kg, body weight","73.6 ± 9.1 mg/kg, body weight",1.38 ± 0.68,42* %,25.1 ± 4.4,–
"Nc1cc(Cl)ccc1CN1CCC(Nc2cccc3cnccc23)C1 (stereo not shown) [Example 19, N5-[1-(2-Amino-4-chlorobenzyl)tetrahydro-1H-3-pyrrolyl]-5-isoquinolylamine]",240,82,–,–,–,–,–,–
